Experiments:
MDA-MB-231 (FGFR−) = test: MTT cytotoxicity assay; conditions: MDA-MB-231
Procedure: By way of example, the in vitro cytotoxicity of the conjugate RuPC1, complex 4 and peptide P2 was determined in four human breast cancer cell lines with different levels of expression of the receptor FGFR, namely MDA-MB-231 (FGFR−), MCF-7 (FGFR−), SK-BR-3 (FGFR+), and MDA-MB-134-VI (FGFR+). The cytotoxicity of RuPC1 was also determined in the stated cell lines at controlled pH 6.8 and 7.4. The cytotoxicity of the complexes 5, 8, 9, and the reference complex (2,2′-bipyridyl)(triphenylphosphane)(f-cyclopentadienyl)ruthenium(II) trifluoromethanesulfonate, [RuCp(PPh3)(bipy)][CF3SO3] (TM34) was only determined in the cell line MDA-MB-231. All the cell lines were from the American Type Culture Collection (ATCC) and were cultured in Dulbecco's Modified Eagle Medium+Glutamax-I (Gibco) supplemented with 10% fetal bovine serum (FBS) and 1% antibiotics, excepting the MDA-MB-134-VI for which it was used the double amount of FBS. The cell cultures were kept in an incubator Heraeus at 37° C. under humidified atmosphere at 5% CO2. The cell viability was evaluated resorting to the MTT ([3-(4,5-dimethylthiazol-2-yl)-2,5-diphenyltetrazolium bromide]) colorimetric assay, which is based on the reduction of the tetrazolium salt to purple formazan by mitochondrial dehydrogenases in metabolically active cells. For the assays, the cells were seeded in 96-well plates (2×10^4 to 3×10^4 cells/200 μL) and allowed to adhere overnight. The compounds were first dissolved in dimethyl sulfoxide to obtain 10 mM stock solutions, further used to prepare the working solutions, at 0.1 to 100 μM, by dilution in the cell culture medium. Alternatively, for the assays at controlled pH 6.8 and 7.4, RuPC1 was first dissolved in a solution of 15% dimethyl sulfoxide/85% phosphate buffer (10 mM in water) to obtain 1.5 mM stock solutions further incubated for 48 hours at both pH values prior to be used to prepare the working solutions, at 0.1 to 50 μM, by dilution in the cell culture medium. In both cases, after continuous exposure of the cells to the compounds for 48 h at 37° C., the medium was removed and the cells were incubated with 200 μL of MTT solution (0.5 mg/mL) for 3 h. Then, the solution was discarded and the purple formazan formed by the viable cells was dissolved in 200 μL of dimethyl sulfoxide. The cell viability (%) was determined relative to the control (cells incubated without compounds) by measuring the absorbance at 570 nm on a PowerWave Xs Bio-Tek Instruments plate spectrophotometer. The respective values of the half maximal inhibitory concentration (IC50) were calculated with the software GraphPad Prism. All the compounds were tested in at least two independent experiments, each comprising six replicates per concentration.

[1] = Stability in organic medium (dimethyl sulfoxide) by UV-Vis spectroscopy; format: physicochemical; conditions: for Relative variation of the maximum absorbance of the π→π* transitions: band 289-300 nm (λmax in column head); for Relative variation of the maximum absorbance of the charge transfer bands: band 357-425 nm (λmax in column head)
Procedure, shortened: (§1)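 UV-Vis spectra (270-900 nm) were recorded at intervals from 0 to 24 h, at room temperature in the dark. Solvents were 100% DMSO, or 5% or 10% DMSO in DMEM depending on complex, at 7.0×10^-5 M to 3.0×10^-4 M.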

[2] = Stability in aqueous medium (dimethyl sulfoxide/Dulbecco's Modified Eagle Medium) by UV-Vis spectroscopy; format: physicochemical; conditions: 5% dimethyl sulfoxide/95% Dulbecco's Modified Eagle Medium; for Relative variation of the maximum absorbance of the π→π* transitions: band 292-296 nm (λmax in column head); for Relative variation of the maximum absorbance of the charge transfer bands: band 358-400 nm (λmax in column head)
Procedure, shortened: as §1

## O=C(Cc1ccccc1)C1=C[CH]([Ru-]2([PH](c3ccccc3)(c3ccccc3)c3ccccc3)[n+]3ccccc3-c3cccc[n+]32)C=C1.O=S(=O)([O-])C(F)(F)F (stereo not shown) [compound 9]
MDA-MB-231 (FGFR−); Example 24
  IC50 range in words: sub-micromolar range
MDA-MB-231 (FGFR−); read-out: Cytotoxic activity expressed as IC50, Table 5, 48 h, 37° C.
  IC50: 310 nM
[1]; time 0 h
  Relative variation of the maximum absorbance of the π→π* transitions: 0.0%
  Relative variation of the maximum absorbance of the charge transfer bands: 0.0%
[1]; time 0.25 h
  Relative variation of the maximum absorbance of the π→π* transitions: 0.0%
  Relative variation of the maximum absorbance of the charge transfer bands: 0.2%
[1]; time 0.5 h
  Relative variation of the maximum absorbance of the π→π* transitions: −0.2%
  Relative variation of the maximum absorbance of the charge transfer bands: 0.2%
[1]; time 0.75 h
  Relative variation of the maximum absorbance of the π→π* transitions: −0.3%
  Relative variation of the maximum absorbance of the charge transfer bands: 0.2%
[1]; time 1 h
  Relative variation of the maximum absorbance of the π→π* transitions: −0.3%
  Relative variation of the maximum absorbance of the charge transfer bands: 0.3%
[1]; time 2 h
  Relative variation of the maximum absorbance of the π→π* transitions: −0.3%
  Relative variation of the maximum absorbance of the charge transfer bands: 0.6%
[1]; time 3 h
  Relative variation of the maximum absorbance of the π→π* transitions: −0.1%
  Relative variation of the maximum absorbance of the charge transfer bands: 0.9%
[1]; time 4 h
  Relative variation of the maximum absorbance of the π→π* transitions: −0.1%
  Relative variation of the maximum absorbance of the charge transfer bands: 0.6%
[1]; time 5 h
  Relative variation of the maximum absorbance of the π→π* transitions: −0.3%
  Relative variation of the maximum absorbance of the charge transfer bands: 0.4%
[1]; time 6 h
  Relative variation of the maximum absorbance of the π→π* transitions: −0.2%
  Relative variation of the maximum absorbance of the charge transfer bands: 0.7%
[1]; time 24 h
  Relative variation of the maximum absorbance of the π→π* transitions: −0.1%
  Relative variation of the maximum absorbance of the charge transfer bands: 0.8%
[2]; time 0 h
  Relative variation of the maximum absorbance of the π→π* transitions: 0.0%
  Relative variation of the maximum absorbance of the charge transfer bands: 0.0%
[2]; time 0.25 h
  Relative variation of the maximum absorbance of the π→π* transitions: −0.2%
  Relative variation of the maximum absorbance of the charge transfer bands: −0.7%
[2]; time 0.5 h
  Relative variation of the maximum absorbance of the π→π* transitions: −0.3%
  Relative variation of the maximum absorbance of the charge transfer bands: −0.8%
[2]; time 0.75 h
  Relative variation of the maximum absorbance of the π→π* transitions: −0.5%
  Relative variation of the maximum absorbance of the charge transfer bands: −0.9%
[2]; time 1 h
  Relative variation of the maximum absorbance of the π→π* transitions: −0.3%
  Relative variation of the maximum absorbance of the charge transfer bands: −1.0%
[2]; time 2 h
  Relative variation of the maximum absorbance of the π→π* transitions: −0.2%
  Relative variation of the maximum absorbance of the charge transfer bands: −1.2%
[2]; time 3 h
  Relative variation of the maximum absorbance of the π→π* transitions: −0.3%
  Relative variation of the maximum absorbance of the charge transfer bands: −1.4%
[2]; time 4 h
  Relative variation of the maximum absorbance of the π→π* transitions: −0.4%
  Relative variation of the maximum absorbance of the charge transfer bands: −1.5%
[2]; time 5 h
  Relative variation of the maximum absorbance of the π→π* transitions: −0.2%
  Relative variation of the maximum absorbance of the charge transfer bands: −1.6%
[2]; time 6 h
  Relative variation of the maximum absorbance of the π→π* transitions: −0.5%
  Relative variation of the maximum absorbance of the charge transfer bands: −1.7%
[2]; time 24 h
  Relative variation of the maximum absorbance of the π→π* transitions: 4.5%
  Relative variation of the maximum absorbance of the charge transfer bands: −0.2%
